Columns and labels:
CDK1/Cyclin B = biological target: T1, CDK1/Cyclin B (Homo sapiens, UniProt P06493); experiment: Enzymatic assay for CDK1 (FRET based LANCE Ultra kinase assay); assay type: biochemical; settings: read-out: CDK1 enzymatic activity (IC50 range)
T1 construct: purchased Invitrogen PR4768C
Procedure: (§1) Enzymatic Binding Assay Protocol for CDK1, CDK2, CDK5 and CDK7
(§2) Inhibition activity of the respective compound on CDK kinase under Km value of ATP was tested in FRET based The LANCE® Ultra kinase assay (Perkin Elmer), which uses a ULight™-labeled peptide substrate and an appropriate Europium-labeled anti-phospho-antibody. Test compounds were made with DMSO solutions, and then 4-fold serial dilutions for 8 doses were prepared using automated liquid handler (POD810, LABCYTE) and 80 nL/well of diluted compound solutions were added into the 384-well plates (Greiner, Cat #784075). And then 68 nM of ULight-MBP peptide (Perkin Elmer, Cat #TRF0109-M) and 5 ul/well of ATP (Sigma, Cat #A7699) were added to the plate. After 1 min centrifugation at 1000 rpm, Purified CDKs/Cyclin complex were added following concentrations respectively. 24 uM for CDK1/Cyclin B (Invitrogen, Cat #PR4768C), 22 uM for CDK2/Cyclin A (Invitrogen, Cat #PV6290), 10 uM for CDK5/p25 (Invitrogen, Cat #PR8543B) and […] for CDK7/Cyclin H/MNAT1 (Invitrogen, Cat #PR6749B) were added to the each corresponding plate for CDK1, CDK2, CDK5 and CDK7. Incubate at 23° C. for 60 min and then Eu-labeled anti-phospho-Myelin Basic Protein (PE, Cat #TRF0201-M) and EDTA (Invitrogen, Cat #15575038) mixture in Lance Detection Buffer (Perkin Elmer, Cat #CR97100) was added in each well. After additional incubation at 23° C. for 60 min, test articles were measured the fluorescence using Envision leader (Perkin Elmer, USA) [Laser as excitation light; […] as the first and the second emission filter]. Data was analyzed using XL Fit software.

CDK2/Cyclin A = biological target: T2, CDK2/Cyclin A (Homo sapiens, UniProt P24941); experiment: Enzymatic assay for CDK2 (FRET based LANCE Ultra kinase assay); assay type: biochemical; settings: read-out: CDK2 enzymatic activity (IC50 range)
T2 construct: purchased Invitrogen PV6290
Procedure: as §1, §2

CDK5/p25 = biological target: T3, CDK5/p25 (Homo sapiens, UniProt Q00535); experiment: Enzymatic assay for CDK5 (FRET based LANCE Ultra kinase assay); assay type: biochemical; settings: read-out: CDK5 enzymatic activity (IC50 range)
T3 construct: purchased Invitrogen PR8543B
T3 sequence (Q00535 whole entry): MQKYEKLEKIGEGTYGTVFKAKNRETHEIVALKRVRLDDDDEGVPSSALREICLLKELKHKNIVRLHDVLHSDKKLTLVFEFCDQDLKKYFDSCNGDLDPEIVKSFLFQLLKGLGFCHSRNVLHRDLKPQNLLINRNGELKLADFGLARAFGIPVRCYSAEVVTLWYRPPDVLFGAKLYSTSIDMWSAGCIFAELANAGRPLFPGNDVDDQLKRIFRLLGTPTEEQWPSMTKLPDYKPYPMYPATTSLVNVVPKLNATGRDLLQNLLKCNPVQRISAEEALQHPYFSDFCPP
T3 sequence (Q15078 99-307 partner limits assumed): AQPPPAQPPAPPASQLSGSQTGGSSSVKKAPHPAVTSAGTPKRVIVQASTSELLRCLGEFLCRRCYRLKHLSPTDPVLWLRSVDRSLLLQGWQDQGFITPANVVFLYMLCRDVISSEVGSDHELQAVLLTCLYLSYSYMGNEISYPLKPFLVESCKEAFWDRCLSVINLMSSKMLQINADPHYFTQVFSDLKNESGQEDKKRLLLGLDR
Procedure: as §1, §2

CDK7/Cyclin H/MNAT1 = biological target: T4, CDK7/Cyclin H/MNAT1 (Homo sapiens, UniProt P50613); experiment: Enzymatic assay for CDK7 (FRET based LANCE Ultra kinase assay); assay type: biochemical; settings: for IC50: read-out: CDK7 enzymatic activity (IC50 range)
T4 construct: purchased Invitrogen PR6749B
T4 sequence (P50613 whole entry): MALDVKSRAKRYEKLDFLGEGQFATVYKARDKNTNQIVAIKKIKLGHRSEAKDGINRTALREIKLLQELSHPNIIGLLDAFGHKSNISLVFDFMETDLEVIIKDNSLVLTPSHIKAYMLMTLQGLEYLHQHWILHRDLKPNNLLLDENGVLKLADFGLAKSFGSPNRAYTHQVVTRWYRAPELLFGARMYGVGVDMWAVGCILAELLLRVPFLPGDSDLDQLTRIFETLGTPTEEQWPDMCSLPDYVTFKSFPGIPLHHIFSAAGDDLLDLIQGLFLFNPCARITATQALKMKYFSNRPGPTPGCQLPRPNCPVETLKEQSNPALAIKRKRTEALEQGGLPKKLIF
T4 sequence (P51946 whole entry partner): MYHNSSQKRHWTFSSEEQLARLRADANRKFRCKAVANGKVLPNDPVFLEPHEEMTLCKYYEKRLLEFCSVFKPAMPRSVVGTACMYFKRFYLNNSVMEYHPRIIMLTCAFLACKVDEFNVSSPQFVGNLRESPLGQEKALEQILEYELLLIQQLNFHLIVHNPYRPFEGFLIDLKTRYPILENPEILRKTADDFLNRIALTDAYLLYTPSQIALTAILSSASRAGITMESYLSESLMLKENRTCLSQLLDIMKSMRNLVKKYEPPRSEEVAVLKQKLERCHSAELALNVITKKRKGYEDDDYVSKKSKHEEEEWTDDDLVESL
T4 sequence (P51948 whole entry partner): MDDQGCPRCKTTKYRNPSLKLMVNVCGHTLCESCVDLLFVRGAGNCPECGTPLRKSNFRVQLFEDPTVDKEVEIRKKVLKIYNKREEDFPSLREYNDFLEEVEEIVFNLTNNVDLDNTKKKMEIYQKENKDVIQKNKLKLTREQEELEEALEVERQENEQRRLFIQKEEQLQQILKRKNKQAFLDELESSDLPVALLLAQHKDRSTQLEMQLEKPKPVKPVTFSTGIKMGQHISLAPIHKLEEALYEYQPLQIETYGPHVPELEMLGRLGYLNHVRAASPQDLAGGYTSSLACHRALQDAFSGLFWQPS
Procedure: as §1
Inhibition activity of the respective compound on CDK kinase under Km value of ATP was tested in FRET based The LANCE® Ultra kinase assay (Perkin Elmer), which uses a ULight™-labeled peptide substrate and an appropriate Europium-labeled anti-phospho-antibody. […] After 1 min centrifugation at 1000 rpm, Purified CDKs/Cyclin complex were added following concentrations respectively. […] Data was analyzed using XL Fit software.

HCT116 = experiment: Cellular HCT116 viability assay (CellTiter-Glo, 72 hours); assay type: cell-based; settings: Homo sapiens, HCT-116
Procedure: (§3) All cell lines were routinely tested for mycoplasma.
(§4) The effect of the CDK7 inhibitor to inhibit the growth of target cancer cells was evaluated through the 72 hours time period of viability assay. Briefly, the candidate cell line ware plated in 96 well plate at the following density of cells respectively. […] DMSO solvent without compound served as a control and final DMSO concentration less than 0.1%. After 72 hours of incubation at 37° C., 5% CO2 incubator, cells were analyzed for the viability using the CellTiter-Glo Luminescent Cell Viability Assay (Promega, Cat #G7570). All viability assays were performed in duplicate and Luminescence was read using an Envision (Perkin Elmer, USA). Data was analyzed using XLfit software.

H460 = experiment: Cellular H460 viability assay (CellTiter-Glo, 72 hours); assay type: cell-based; settings: Homo sapiens, NCI-H460
Procedure: as §3, §4

MV4-11 = experiment: Cellular MV4-11 viability assay (CellTiter-Glo, 72 hours); assay type: cell-based; settings: Homo sapiens
Procedure: as §3, §4

T1 sequence (P06493 whole entry): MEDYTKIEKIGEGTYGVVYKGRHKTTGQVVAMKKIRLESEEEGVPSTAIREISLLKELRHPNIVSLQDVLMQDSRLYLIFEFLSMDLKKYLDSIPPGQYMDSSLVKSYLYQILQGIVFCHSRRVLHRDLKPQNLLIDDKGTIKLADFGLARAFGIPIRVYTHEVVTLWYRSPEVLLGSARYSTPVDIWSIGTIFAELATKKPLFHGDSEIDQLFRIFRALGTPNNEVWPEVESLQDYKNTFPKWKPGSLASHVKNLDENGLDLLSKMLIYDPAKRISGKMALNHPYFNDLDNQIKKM
T1 sequence (P14635 whole entry partner): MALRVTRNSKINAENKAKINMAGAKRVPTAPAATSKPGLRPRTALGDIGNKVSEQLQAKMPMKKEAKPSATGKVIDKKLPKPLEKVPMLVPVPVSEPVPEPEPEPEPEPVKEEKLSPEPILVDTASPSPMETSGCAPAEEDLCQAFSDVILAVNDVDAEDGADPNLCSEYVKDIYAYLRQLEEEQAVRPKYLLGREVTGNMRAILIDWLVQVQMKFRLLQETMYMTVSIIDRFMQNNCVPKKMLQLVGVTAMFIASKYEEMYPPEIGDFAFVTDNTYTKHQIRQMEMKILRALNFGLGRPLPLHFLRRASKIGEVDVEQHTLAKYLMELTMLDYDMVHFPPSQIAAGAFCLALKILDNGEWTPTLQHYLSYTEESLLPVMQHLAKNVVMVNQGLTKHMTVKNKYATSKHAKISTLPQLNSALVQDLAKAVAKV

Compound	IC50 (CDK1/Cyclin B) [nM]	IC50 (CDK2/Cyclin A) [nM]	IC50 (CDK5/p25) [nM]	CDK1/CDK7: Selectivity of CDK7 inhibition over CDK1 inhibition (CDK7/Cyclin H/MNAT1)	CDK2/CDK7: Selectivity of CDK7 inhibition over CDK2 inhibition (CDK7/Cyclin H/MNAT1)	CDK5/CDK7: Selectivity of CDK7 inhibition over CDK5 inhibition (CDK7/Cyclin H/MNAT1)	IC50 (CDK7/Cyclin H/MNAT1) [nM]	IC50 (HCT116) [nM]	IC50 (H460) [nM]	IC50 (MV4-11) [nM]
CCC(=O)N1CCc2nn(-c3cccc(Cl)c3CNc3cc(O[C@@H]4CCCNC4)nc4c(C(C)C)cnn34)cc2C1 [Compound 211]	> 1000	> 1000	> 1000	A (A=greater than 200 fold)	A (A=greater than 200 fold)	A (A=greater than 200 fold)	< 100	1000 to 10000	1000 to 10000	1000 to 10000
CC(C)c1cnn2c(NCc3ccccc3-c3ccc4ccccc4n3)nc(NCC3CCNCC3O)nc12 (centres unmarked) [Compound 222]	> 1000	100 to 1000	100 to 1000	A (A=greater than 200 fold)	A (A=greater than 200 fold)	A (A=greater than 200 fold)	< 100	< 1000	< 1000	< 1000
CC(C)c1cnn2c(NCc3ccccc3-n3ccc(C(C)(C)O)n3)nc(NCC3CCNCC3O)nc12 (centres unmarked) [Compound 223]	> 1000	> 1000	> 1000	A (A=greater than 200 fold)	B (B=less than 200 fold, but greater than 20 fold)	B (B=less than 200 fold, but greater than 20 fold)	< 100	< 1000	< 1000	< 1000
CC(C)c1cnn2c(NCc3c(Cl)cccc3-n3ccc(N4CCOCC4)n3)nc(N3CCC(N)CC3)nc12 [Compound 202]	> 1000	> 1000	> 1000	A (A=greater than 200 fold)	A (A=greater than 200 fold)	A (A=greater than 200 fold)	< 100	< 1000	< 1000	< 1000
CC(C)c1cnn2c(NCc3c(Cl)cccc3-n3ccc(CO)n3)nc(N3CCC(N)CC3)nc12 [Compound 207]	> 1000	> 1000	100 to 1000	A (A=greater than 200 fold)	A (A=greater than 200 fold)	B (B=less than 200 fold, but greater than 20 fold)	< 100	< 1000	< 1000	< 1000
CC(C)c1cnn2c(NCc3c(Cl)cccc3-n3ccc(C(=O)NC4COC4)n3)nc(N3CCC(N)CC3)nc12 [Compound 205]	> 1000	> 1000	100 to 1000	A (A=greater than 200 fold)	A (A=greater than 200 fold)	B (B=less than 200 fold, but greater than 20 fold)	< 100	< 1000	< 1000	< 1000
CC(C)c1cnn2c(NCc3c(Cl)cccc3N3CCOCC3)nc(N3CCC(N)CC3)nc12 [Compound 206]	> 1000	> 1000	100 to 1000	A (A=greater than 200 fold)	A (A=greater than 200 fold)	B (B=less than 200 fold, but greater than 20 fold)	< 100	< 1000	< 1000	< 1000
CC(C)c1cnn2c(NCc3c(Cl)cccc3-n3cc(N4CCOCC4)cn3)nc(N3CCC(N)CC3)nc12 [Compound 203]	> 1000	> 1000	> 1000	A (A=greater than 200 fold)	A (A=greater than 200 fold)	A (A=greater than 200 fold)	< 100	< 1000	< 1000	< 1000
Cc1cccc(-c2cc(CO)nn2C)c1CNc1nc(N2CCC(N)CC2)nc2c(C(C)C)cnn12 [Compound 214]	> 1000	> 1000	> 1000	A (A=greater than 200 fold)	A (A=greater than 200 fold)	A (A=greater than 200 fold)	< 100	< 1000	< 1000	< 1000
Cc1cccc(-n2ccc(C(C)(C)O)n2)c1CNc1nc(NCC2CCNCC2)nc2c(C(C)C)cnn12 [Compound 232]	> 1000	> 1000	> 1000	A (A=greater than 200 fold)	A (A=greater than 200 fold)	A (A=greater than 200 fold)	< 100	1000 to 10000	1000 to 10000	1000 to 10000
CC(C)c1cnn2c(NCc3c(Cl)cccc3-n3ccc(C(C)(C)O)n3)nc(N3CCC(CN)CC3)nc12 [Compound 217]	> 1000	> 1000	> 1000	A (A=greater than 200 fold)	A (A=greater than 200 fold)	A (A=greater than 200 fold)	< 100	< 1000	< 1000	< 1000

From patent US11945822B2, “Pyrazolo-triazine and/or pyrazolo-pxrimidine derivatives as selective inhibitor of cyclin dependent kinase” (QURIENT CO., LTD., priority 2018, dated 2024)
